Reference: PubChem BioAssay (NCI)
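Results reflect a 48-hour exposure of cells in 96-well plates to compound at five concentrations. TGI denotes the concentration required for complete inhibition of growth.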

Key:
Test in all cases: inhibition of tumour cell growth, NCI panel, 48 h
OVCAR-4 ovarian = tested on: OVCAR-4 ovarian
786-0 renal = tested on: 786-0 renal
HOP-92 NSCLC = tested on: HOP-92 NSCLC
BT-549 breast = tested on: BT-549 breast
OVCAR-8 ovarian = tested on: OVCAR-8 ovarian
A498 renal = tested on: A498 renal
NCI-H460 lung = tested on: NCI-H460 lung
HT29 colon = tested on: HT29 colon
KM12 colon = tested on: KM12 colon
IGROV1 ovarian = tested on: IGROV1 ovarian
DU-145 prostate = tested on: DU-145 prostate
UACC-62 melanoma = tested on: UACC-62 melanoma
U251 CNS = tested on: U251 CNS
OVCAR-5 ovarian = tested on: OVCAR-5 ovarian
EKVX NSCLC = tested on: EKVX NSCLC
HOP-62 NSCLC = tested on: HOP-62 NSCLC
LOX IMVI melanoma = tested on: LOX IMVI melanoma
MDA-N = tested on: MDA-N
UACC-257 melanoma = tested on: UACC-257 melanoma
RPMI-8226 leukemia = tested on: RPMI-8226 leukemia
SNB-19 CNS = tested on: SNB-19 CNS
MDA-MB-435 = tested on: MDA-MB-435
CCRF-CEM leukemia = tested on: CCRF-CEM leukemia
SK-MEL-28 melanoma = tested on: SK-MEL-28 melanoma
SK-MEL-2 melanoma = tested on: SK-MEL-2 melanoma
SNB-75 CNS = tested on: SNB-75 CNS
NCI/ADR-RES ovarian = tested on: NCI/ADR-RES ovarian
NCI-H522 lung = tested on: NCI-H522 lung
SK-OV-3 ovarian = tested on: SK-OV-3 ovarian
NCI-H226 lung = tested on: NCI-H226 lung
K-562 leukemia = tested on: K-562 leukemia
MALME-3M melanoma = tested on: MALME-3M melanoma
HS 578T breast = tested on: HS 578T breast
MOLT-4 leukemia = tested on: MOLT-4 leukemia
RXF 393 renal = tested on: RXF 393 renal
OVCAR-3 ovarian = tested on: OVCAR-3 ovarian
MDA-MB-231 breast = tested on: MDA-MB-231 breast
A549 NSCLC = tested on: A549 NSCLC
T-47D breast = tested on: T-47D breast
NCI-H23 lung = tested on: NCI-H23 lung
HCT-15 colon = tested on: HCT-15 colon
SR leukemia = tested on: SR leukemia
SF-295 CNS = tested on: SF-295 CNS
SK-MEL-5 melanoma = tested on: SK-MEL-5 melanoma
ACHN renal = tested on: ACHN renal
CAKI-1 renal = tested on: CAKI-1 renal
UO-31 renal = tested on: UO-31 renal
SW-620 colon = tested on: SW-620 colon
PC-3 prostate = tested on: PC-3 prostate
COLO 205 colon = tested on: COLO 205 colon
M14 melanoma = tested on: M14 melanoma
HL-60(TB) leukemia = tested on: HL-60(TB) leukemia
TK-10 renal = tested on: TK-10 renal
SF-268 CNS = tested on: SF-268 CNS
SN12C renal = tested on: SN12C renal
MCF7 breast = tested on: MCF7 breast
HCC-2998 colon = tested on: HCC-2998 colon
HCT-116 colon = tested on: HCT-116 colon

Measured: TGI

NC(=S)Nc1ccc2c(c1)oc1ccccc12
> 100 µM: all assays above

O=C(O)C1CCN(Cc2oc(CO)cc(=O)c2O)C1 (stereo not given)
not listed: HCC-2998 colon
> 100 µM: all other assays above
